Values quoted from earlier work as cited in patent publication US12070034B2, “Synergistic herbicidal combinations” (UPL LTD, priority 2017, dated 2024).

Conditions: acid form, before neutralisation with ammonium phosphate dibasic

## Nc1c(Cl)c(Cl)nc(C(=O)O)c1Cl [Picloram acid]
  solubility: 560 mg/I

## O=C(O)COc1ccc(Cl)cc1Cl [2,4-D acid]
  solubility: 311 mg/I
